Assay results: publication PMC8294059, “Identification and Immune Assessment of T Cell Epitopes in Five Plasmodium falciparum Blood Stage Antigens to Facilitate Vaccine Candidate Selection and Optimization” (Frontiers in Immunology, 2021)
Where a SMILES comes first, the peptide text is derived from it.

target: HLA-B*0702 (Homo sapiens, UniProt P01889); test: In vitro class I HLA binding assay (fluorescence polarization competition); details: allele B*0702; cell-free competition, fluorescence polarization at 72 hours; Non-binder = no dose-dependent inhibition
Description: A cell-free class I HLA binding assay that allows for in vitro quantification of peptide-HLA binding affinity in a competition format was used. In this assay, a fluorescently labeled, high binding, control peptide is loaded onto 384-well ½-area plates along with unlabeled experimental peptides. To remove endogenous peptides and render the HLA A and B molecules receptive to binding, HLA is heated at 53°C for 15 minutes and immediately added to the assay. The mixture is then allowed to stand for three days. […] Binding of experimental peptides is expressed as the percent inhibition of the labeled control peptide (experimental fluorescence / control fluorescence, multiplied by 100). The percent inhibition values for each experimental peptide (across a range of molar concentrations) are used to calculate the concentration which inhibits 50% of the labeled control peptide’s specific binding. This value is referred to as the peptide’s IC50.

Compound | IC50 (nM)
LQKHGFHTM [EBA175_1260] | Non-binder
NPQQSVGENG [EBA175_0794] | Non-binder
TPGPLDNTSE [EBA175_1073] | Non-binder

same assay, conditions: allele B*0702; cell-free competition, fluorescence polarization at 72 hours; Non-binder = no dose-dependent inhibition; read-out: IC50

Compound | IC50
CC[C@H](C)[C@H](NC(=O)[C@@H](NC(=O)[C@H](C)NC(=O)[C@H](CCCCN)NC(=O)[C@@H]1CCCN1C(=O)[C@@H](N)CCSC)C(C)C)C(=O)NCC(=O)N[C@@H](CO)C(=O)N[C@@H](CO)C(=O)N1CCC[C@H]1C(=O)O [EBA175_0971] (H-MPKAVIGSSP-OH) | 293 µM
CC[C@H](C)[C@H](NC(=O)[C@H](CC(N)=O)NC(=O)[C@H](CC(=O)O)NC(=O)[C@H](CC(N)=O)NC(=O)[C@@H]1CCCN1C(=O)[C@@H](N)CO)C(=O)N[C@@H](CC(N)=O)C(=O)N[C@H](C(=O)N[C@H](C(=O)O)[C@@H](C)O)C(C)C [EBA175_0979] (H-SPNDNINVT-OH) | 36.1 µM
CC(C)C[C@H](NC(=O)[C@@H](NC(=O)[C@H](CC(N)=O)NC(=O)[C@H](CO)NC(=O)[C@H](CC(N)=O)NC(=O)[C@H](CCCNC(=N)N)NC(=O)[C@H](CC(=O)O)NC(=O)[C@H](CCC(=O)O)NC(=O)[C@@H]1CCCN1C(=O)[C@@H](N)CC(N)=O)[C@@H](C)O)C(=O)O [EBA175_1224] (H-NPEDRNSNTL-OH) | 2.7 µM

same assay, conditions: allele B*0702; fluorescence polarization competition

Compound | IC50 (nM), in vitro HLA binding affinity
CPENSTCEQI [RIPR_0331] | Non-binder
FITSDHLRQM [RH5_469] | Non-binder
FNRIEYHTKI [RH5_421] | Non-binder
FPCSLYKDEI [AMA1_441] | Non-binder
HPYDINNKND [RH5_240] | Non-binder
IPHYTFLDYY [RH5_176] | Non-binder
KPHECVCNKQ [RIPR_0878] | Non-binder
KSAFLPTGAF [AMA1_376] | Non-binder
LPIKSTEEEK [RH5_042] | Non-binder
